Results published in patent publication US4049829A, “Sulphur containing hydroxy aliphatic compounds” (Societe anonyme dite: Laboratoire L. Lafon, priority 1974, dated 1977).
Where a name gives a salt, the structure may show the parent alone. Values belong to the compound of their own block, whether it stands above or below them.

How the values were obtained:
[1] = Hypolipidic activity in rats on hyperlipidic diet (Table IV); type: in vivo; design: Burstein Test: unit not given here; details: for Total Cholesterol / Total Lipids / Burstein Test, % inhibition / Total Cholesterol, % inhibition / Total Lipids, % inhibition / Burstein Test: Table IV; for Burstein Test, % inhibition / Total Cholesterol, % inhibition / Total Lipids, % inhibition: normal = 100%, hyperlipidic = 0%
Description: In Table IV below the following results have been obtained.
A -- in rats receiving a normal diet (percentage inhibition = 100%);
B -- in rats receiving a hyperlipidic diet (percentage inhibition = 0%);
C -- in rats receiving the same hyperlipidic diet B with a daily dose of 0.1 g/kg of a reference normolipidemiant LIPAVLON [ethyl-2-(p-chlorophenoxy)-2-methylpropionate; International name: CLOFIBRATE];
D -- in rats receiving the same hyperlipidic diet B with a daily dose of 0.1 g/kg of a reference normolipidemiant ATHEROLIP [aluminium salt of 2-(p-chlorophenoxy)-2-methylpropionic acid];
E -- in rats receiving the same hyperlipidic diet B with a daily dose of 0.1 g/kg of a reference normolipidemiant, LL 1558 [1,10-bis(2-hydroxyethyl-thio)decane];
F -- in rats receiving the same hyperlipidic diet B with a daily dose 0.010 g/kg, 0.025 g/kg or 0.050 g/kg of CRL 40046.
The averages of the tests effected on CRL 40 055 in three different doses and calculated comparatively to reference products corresponding to various experiments allow an activity of the product to be concluded as follows: […]

[2] = Solubility (stated with the preparation); type: physicochemical
rats = experiment: Acute toxicity by oral dose, rats; type: in vivo; details: up to a dose of 5 g/kg
Description: (§1) The product is not toxic. The experiments relating to acute toxicity by oral dose for mice and rats have given evidence that there is no mortality amongst animals treated up to a dose of 5 g/kg.

[3] = Overall activity from both experimental standards I and II; type: in vivo, Wistar rats; details: for product activity: of the order of
Experimental: The hypolipaemiant properties of the CRL 40 122 have been studied in rats according to two different standard experiments:
The experiment was conducted for two weeks on Wistar rats, subjected to a daily hyperlipidic diet at the dose of about 20 g for an animal of 150 g in average.
The activity of the product studied was determined by comparison with normal control groups of rats and with groups of rats subjected to a hyperlipidic diet and not treated. For each dose of CRL 40 122 there were three groups of five animals each (control group, group only receiving the hyperlipidic diet, and treated group). The results obtained correspond to the average of each of the series. A very interesting activity of CRL 40 122 appeared at active doses of 10 mg to 50 mg/kg in rats subjected to a hyperlipidic diet (decrease from 64 to 34% of the rate of blood lipids according to dose; decrease of cholesterol from 68 to 41%).
(§2) The experiment was carried out over five days on normal male Wistar rats. The animals, numbering 8 per dose of the product to be studied, were treated orally daily, the last feed taking place 3 hours before the animals were killed. Each series was divided into two groups of animals: one group killed after 3 days of experiment; the other group killed after 5 days of experiment.
The results were determined by comparison with 8 normal rats subjected to the same experimental conditions and not treated.
Overall these tests led to the following conclusions:
1. The two experimental standards, although very different give rise to a product activity of the order of: […]

mice = experiment: Acute toxicity by oral dose, mice; type: in vivo
Description: as §1

[4] = Human therapeutics: patients suffering from hyperlipaemia and hypercholesterolaemia; type: in vivo
[5] = Experimental standard II: normal rats, five days oral treatment; type: in vivo, normal male Wistar rats; details: oral dose of 20 mg/kg, vs untreated normal rats
Experimental: as §2, with “The hypolipaemiant properties of the CRL 40 122 have been studied in rats according to two different standard experiments: A study on normal Wistar rats (standard II). The experiment” for “The experiment”, “of experiment. The results were determined by comparison with 8 normal rats subjected to the same experimental conditions and not treated.” for “of experiment.”

[6] = first experiment, hyperlipidic diet + product 0,1g/kg daily
[7] = second experiment, hyperlipidic diet + product 0,1g/kg daily
[8] = third experiment, hyperlipidic diet + product 0,1g/kg daily
[9] = first experiment, hyperlipidic diet + product 0,050g/kg daily
[10] = second experiment, hyperlipidic diet + product 0,025g/kg daily
[11] = third experiment, hyperlipidic diet + product "010g/kg" daily
[12] = total dose of 400 mg per day, capsules of 100 mg and 200 mg

Structure (SMILES): CC(C)(Oc1ccc(Cl)cc1)C(=O)O [Atherolip, aluminium salt of 2-(p-chlorophenoxy)-2-methylpropionic acid]
Total Cholesterol [1, 6]: 2.08 g/L
Total Lipids [1, 6]: 6.8 g/L
Burstein Test, % inhibition [1, 6]: 67%
Total Cholesterol, % inhibition [1, 6]: 59%
Total Lipids, % inhibition [1, 6]: 49%

Structure (SMILES): OCCSCCCCCCCCSCCO [CRL 40 077, 1,8-Bis(2-hydroxyethyl-thio)-octane]
solubility in alcohol [2]: soluble
solubility in water [2]: insoluble

Structure (SMILES): OCCSCCCCCCCCCCSCCO [LL 1558, 1,10-bis(2-hydroxyethyl-thio)decane]
Burstein Test [1, 7]: 38
Total Cholesterol [1, 7]: 1.33 g/L
Total Lipids [1, 7]: 5.1 g/L
Burstein Test, % inhibition [1, 7]: 87%
Total Cholesterol, % inhibition [1, 7]: 85%
Total Lipids, % inhibition [1, 7]: 82%
Burstein Test [1, 8]: 37
Total Cholesterol [1, 8]: 1.33 g/L
Total Lipids [1, 8]: 4.5 g/L
Burstein Test, % inhibition [1, 8]: 85%
Total Cholesterol, % inhibition [1, 8]: 70%
Total Lipids, % inhibition [1, 8]: 77%

Structure (SMILES): OCCSCCCCCCSCCO [CRL 40 085, 1,6-Bis(2-hydroxyethyl-thio)-hexane]
solubility in alcohol [2]: soluble
solubility in water [2]: insoluble

Structure (SMILES): CC(C)(CO)SCCCCCCCCCCSC(C)(C)CO [CRL 40 055, 2,2,15,15-Tetramethyl-3,14-dithia-1,16-hexadecanediol]
solubility in water [2]: insoluble
Burstein Test [1, 9]: 64
Total Cholesterol [1, 9]: 2.29 g/L
Total Lipids [1, 9]: 7.45 g/L
Burstein Test, % inhibition [1, 9]: 58%
Total Cholesterol, % inhibition [1, 9]: 51%
Total Lipids, % inhibition [1, 9]: 41%
Burstein Test [1, 10]: 82
Total Cholesterol [1, 10]: 2.43 g/L
Total Lipids [1, 10]: 8.06 g/L
Burstein Test, % inhibition [1, 10]: 30%
Total Cholesterol, % inhibition [1, 10]: 53%
Total Lipids, % inhibition [1, 10]: 37%
Total Cholesterol [1, 11]: 3.81 g/L
Total Lipids [1, 11]: 11.3 g/L
Burstein Test, % inhibition [1, 11]: 0%
Total Cholesterol, % inhibition [1, 11]: 0%
Total Lipids, % inhibition [1, 11]: 0%
activity (in words) ([1]; dose of 0.010 g/kg): the activity appears to have completely disappeared
activity as compared with the reference products (in words) ([1]; dose of 0.025 g/kg vs reference products at 0.1 g/kg): substantially constant activity as compared with the reference products

Structure (SMILES): CC(CO)SCCCCCCCCCCSC(C)CO (racemic) [CRL 40 122, (±)-2,15-Dimethyl-3,14-dithia-1,16-hexadecanediol]
mortality (rats): no mortality
solubility in water [2]: insoluble
appearance of activity (onset) [3]: after the third day of treatment
product activity ([3]; dose of 10 mg/kg): ~20%
product activity ([3]; dose of 20 mg/kg): ~30%
product activity ([3]; dose of 50 mg/kg): ~60%
toxicity (in words) (mice; acute oral, mice and rats): not toxic
mortality (mice; oral, mice, up to a dose of 5 g/kg): no mortality
use in human therapeutics (in words) ([4]; capsules dosed at 100 mg and at 200 mg): used with success
hypercholesterolaemia [4, 12]: decrease after several days of treatment
hyperlipaemia [4, 12]: decrease after several days of treatment
decrease in cholesterol [5]: 23%
decrease in total lipids [5]: 31%

Structure (SMILES): OCCSCCCCCCCSCCO [CRL 40 120, 1,7-Bis(2-hydroxyethyl-thio)-heptane]
solubility in alcohol [2]: soluble
solubility in water [2]: insoluble

Structure (SMILES): CCOC(=O)C(C)(C)Oc1ccc(Cl)cc1 [Lipavlon, ethyl-2-(p-chlorophenoxy)-2-methylpropionate]
Total Cholesterol [1, 6]: 2.47 g/L
Total Lipids [1, 6]: 7.75 g/L
Burstein Test, % inhibition [1, 6]: 49%
Total Cholesterol, % inhibition [1, 6]: 46%
Total Lipids, % inhibition [1, 6]: 37%
Total Cholesterol [1, 7]: 3 g/L
Total Lipids [1, 7]: 9.2 g/L
Burstein Test, % inhibition [1, 7]: 27%
Total Cholesterol, % inhibition [1, 7]: 36%
Total Lipids, % inhibition [1, 7]: 20%
Total Cholesterol [1, 8]: 1.58 g/L
Total Lipids [1, 8]: 7.3 g/L
Burstein Test, % inhibition [1, 8]: 25%
Total Cholesterol, % inhibition [1, 8]: 60%
Total Lipids, % inhibition [1, 8]: 22%

Structure (SMILES): OCCSCCCCCCCCCSCCO [CRL 40 116, 1,9Bis(2-hydroxyethylthio)-nonane]
solubility in alcohol [2]: soluble
solubility in water [2]: insoluble

Other lines, results leading:

solubility in water [2]: insoluble
Structure (SMILES): OCCSCCCCCCCCCCCSCCO [CRL 40 194, 1,11-Bis-(2-hydroxyethyl-thio)-undecane]

solubility in water [2]: insoluble
Structure (SMILES): OCCC(CO)SCCCCCCCCCCSC(CO)CCO (centres unmarked) [CRL 40 176, 1,18-Dihydroxy-3,16-di(hydroxymethylene)-4,15-dithia-octadecane]

solubility in water [2]: insoluble
Structure (SMILES): OCC(O)CSCCCCCCCCCCSCC(O)CO (centres unmarked) [CRL 40 155, 1,10-Bis(2,3-dihydroxypropyl-thio)decan]

solubility in water [2]: insoluble
Structure (SMILES): CC(CO)SCCCCCCCCCSC(C)CO (centres unmarked) [CRL 40 193, 2,14-Dimethyl-3,13-dithia-1,15-pentadecanediol]
